From ChEMBL document CHEMBL1909046, “DrugMatrix in vitro pharmacology data”
Where a SMILES comes first, the peptide text is derived from it. Bridges are numbered along the chain shown (N, C = ends). [ ]: non-standard residue; d: D form. The star is where a group is joined. Ileψ(thiazoline)Cys = CC[C@H](C)[C@H](N)C1=N[C@H](C(=O)*)CS1; dOrn = NCCC[C@@H](N)C(=O)O

Key:
[1] = biological target: T1, Cysteinyl leukotriene receptor 1 (Homo sapiens, UniProt Q9Y271); type: cell membranes, CHO-K1, Membrane; conditions: cho-k1; further: in other assays of this panel Not Active means under 50% inhibition at 10 µM
T1 sequence (Q9Y271 whole entry): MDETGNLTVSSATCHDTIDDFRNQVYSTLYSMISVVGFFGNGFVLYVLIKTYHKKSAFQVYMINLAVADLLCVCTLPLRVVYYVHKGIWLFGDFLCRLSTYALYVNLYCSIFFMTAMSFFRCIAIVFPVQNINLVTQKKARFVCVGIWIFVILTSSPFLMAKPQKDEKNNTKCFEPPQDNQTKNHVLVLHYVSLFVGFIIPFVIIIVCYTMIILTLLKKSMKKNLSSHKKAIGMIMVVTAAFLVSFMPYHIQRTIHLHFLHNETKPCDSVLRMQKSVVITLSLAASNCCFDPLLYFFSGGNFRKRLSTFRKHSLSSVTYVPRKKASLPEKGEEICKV

[2] = biological target: T2, Amine oxidase [flavin-containing] A (Homo sapiens, UniProt P21397); test: DRUGMATRIX: Monoamine Oxidase MAO-A enzyme inhibition (substrate: Kynuramine); design: species or system BTI-TN-5B1-4; conditions: bti-tn-5b1-4; Not Active = under 50% inhibition at 10 µM
T2 sequence (P21397 whole entry): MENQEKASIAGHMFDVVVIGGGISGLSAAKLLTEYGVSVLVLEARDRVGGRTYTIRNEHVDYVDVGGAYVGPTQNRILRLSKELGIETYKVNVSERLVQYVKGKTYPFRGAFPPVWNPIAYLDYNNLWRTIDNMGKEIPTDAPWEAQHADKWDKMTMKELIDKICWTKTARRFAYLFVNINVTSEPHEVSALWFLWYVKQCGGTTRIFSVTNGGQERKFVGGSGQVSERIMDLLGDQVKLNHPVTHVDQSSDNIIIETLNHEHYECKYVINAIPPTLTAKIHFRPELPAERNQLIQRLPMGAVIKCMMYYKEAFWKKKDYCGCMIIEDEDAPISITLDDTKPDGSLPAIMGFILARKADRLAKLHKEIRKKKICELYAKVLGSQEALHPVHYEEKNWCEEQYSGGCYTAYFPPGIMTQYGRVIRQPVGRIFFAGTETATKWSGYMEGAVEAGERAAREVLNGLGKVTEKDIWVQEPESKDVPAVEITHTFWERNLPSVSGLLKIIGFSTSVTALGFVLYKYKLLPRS

[3] = DRUGMATRIX: Purinergic P2X radioligand binding (ligand: [3H] alpha, beta-Methylene-ATP); type: cell membranes, Oryctolagus cuniculus, New Zealand albino, Urinary bladder, Membrane; conditions: Not Active = under 50% inhibition at 10 µM
[4] = DRUGMATRIX: Phorbol Ester radioligand binding (ligand: [3H] PDBu); type: cell membranes, Mus musculus, ICR, Brain, Membrane; conditions: Not Active = under 50% inhibition at 10 µM
[5] = DRUGMATRIX: Interleukin IL-1 radioligand binding (ligand: [125I] interleukin 1beta); type: cell membranes, Membrane; conditions: nih3t3; Not Active = under 50% inhibition at 10 µM
[6] = DRUGMATRIX: Platelet-Derived Growth Factor (PDGF) radioligand binding (ligand: [125I] PDGF); type: cell-based; conditions: nih3t3; Not Active = under 50% inhibition at 10 µM
[7] = biological target: Carbonic anhydrase 2 (Homo sapiens, UniProt P00918); test: DRUGMATRIX: Carbonic Anhydrase II enzyme inhibition (substrate: 4-Nitrophenyl acetate (4-NPA)); type: tissue-based, Erythrocyte; conditions: erythrocyte; Not Active = under 50% inhibition at 10 µM
[8] = biological target: T3, Cholecystokinin receptor type A (Homo sapiens, UniProt P32238); type: cell membranes, Membrane; conditions: 1321-n1; further: in other assays of this panel Not Active means under 50% inhibition at 10 µM
T3 sequence (P32238 whole entry): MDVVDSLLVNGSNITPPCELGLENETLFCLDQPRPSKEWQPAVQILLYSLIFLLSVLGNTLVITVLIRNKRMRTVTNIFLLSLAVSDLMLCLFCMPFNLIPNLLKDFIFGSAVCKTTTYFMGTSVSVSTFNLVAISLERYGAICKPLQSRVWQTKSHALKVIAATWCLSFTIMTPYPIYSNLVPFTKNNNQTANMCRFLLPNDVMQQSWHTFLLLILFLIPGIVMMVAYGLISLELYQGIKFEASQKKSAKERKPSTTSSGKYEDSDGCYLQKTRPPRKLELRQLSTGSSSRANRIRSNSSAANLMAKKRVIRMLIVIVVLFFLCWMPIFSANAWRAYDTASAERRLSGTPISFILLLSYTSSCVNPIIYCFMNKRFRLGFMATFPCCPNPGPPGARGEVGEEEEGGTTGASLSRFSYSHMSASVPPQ

[9] = biological target: Estrogen receptor beta (Homo sapiens, UniProt Q92731); conditions: sf9; further: in other assays of this panel Not Active means under 50% inhibition at 10 µM
[10] = biological target: T4, Alpha-2A adrenergic receptor (Homo sapiens, UniProt P08913); type: cell membranes, Sf9, Membrane; conditions: sf9; further: in other assays of this panel Not Active means under 50% inhibition at 10 µM
T4 sequence (P08913 whole entry): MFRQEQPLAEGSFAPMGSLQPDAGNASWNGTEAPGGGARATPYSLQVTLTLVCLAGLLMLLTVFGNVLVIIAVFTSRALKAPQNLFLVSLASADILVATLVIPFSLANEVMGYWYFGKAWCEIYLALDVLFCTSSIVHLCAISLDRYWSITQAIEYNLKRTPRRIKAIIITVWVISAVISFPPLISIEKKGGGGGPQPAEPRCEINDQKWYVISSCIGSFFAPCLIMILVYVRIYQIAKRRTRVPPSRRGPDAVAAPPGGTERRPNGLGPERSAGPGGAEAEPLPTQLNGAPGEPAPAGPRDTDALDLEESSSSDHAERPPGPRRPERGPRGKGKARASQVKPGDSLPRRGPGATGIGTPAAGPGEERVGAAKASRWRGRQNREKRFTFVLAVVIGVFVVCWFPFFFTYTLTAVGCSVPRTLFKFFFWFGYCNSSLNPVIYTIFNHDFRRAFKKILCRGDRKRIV

[11] = DRUGMATRIX: Phosphodiesterase PDE3 enzyme inhibition (substrate: [3H]cAMP + cAMP); type: tissue-based, Homo sapiens; conditions: platelet; Not Active = under 50% inhibition at 10 µM
[12] = biological target: T5, Neutrophil elastase (Homo sapiens, UniProt P08246); type: tissue-based
T5 sequence (P08246 whole entry): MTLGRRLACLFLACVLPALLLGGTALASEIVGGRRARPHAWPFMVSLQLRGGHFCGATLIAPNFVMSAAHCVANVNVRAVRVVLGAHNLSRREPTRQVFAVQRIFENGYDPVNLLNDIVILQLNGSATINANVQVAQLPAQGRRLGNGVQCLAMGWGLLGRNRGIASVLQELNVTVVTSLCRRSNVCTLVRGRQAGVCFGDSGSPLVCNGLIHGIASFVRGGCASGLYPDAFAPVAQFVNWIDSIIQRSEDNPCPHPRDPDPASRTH

[13] = biological target: D(1A) dopamine receptor (Homo sapiens, UniProt P21728); test: DRUGMATRIX: Dopamine D1 radioligand binding (ligand: [3H] SCH-23390); type: cell membranes, CHO, Membrane; conditions: cho; Not Active = under 50% inhibition at 10 µM
[14] = DRUGMATRIX: Glutamate, NMDA, Phencyclidine radioligand binding (ligand: [3H] TCP); type: cell membranes, Rattus norvegicus, Wistar, Cerebral cortex, Membrane; conditions: Not Active = under 50% inhibition at 10 µM

D(1A) dopamine receptor, sequence (P21728 whole entry): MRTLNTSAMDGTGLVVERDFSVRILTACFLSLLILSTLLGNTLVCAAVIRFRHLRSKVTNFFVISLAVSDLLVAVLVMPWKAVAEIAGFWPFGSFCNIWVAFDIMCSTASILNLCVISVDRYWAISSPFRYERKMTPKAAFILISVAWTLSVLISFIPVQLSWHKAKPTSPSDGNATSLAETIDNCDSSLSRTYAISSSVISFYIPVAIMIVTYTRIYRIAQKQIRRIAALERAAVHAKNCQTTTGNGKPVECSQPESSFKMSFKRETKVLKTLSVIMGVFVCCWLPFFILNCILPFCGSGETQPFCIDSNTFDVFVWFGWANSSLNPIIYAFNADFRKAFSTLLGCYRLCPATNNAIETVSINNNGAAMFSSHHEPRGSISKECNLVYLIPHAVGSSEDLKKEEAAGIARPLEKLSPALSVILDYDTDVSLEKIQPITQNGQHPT
Estrogen receptor beta, sequence (Q92731 whole entry): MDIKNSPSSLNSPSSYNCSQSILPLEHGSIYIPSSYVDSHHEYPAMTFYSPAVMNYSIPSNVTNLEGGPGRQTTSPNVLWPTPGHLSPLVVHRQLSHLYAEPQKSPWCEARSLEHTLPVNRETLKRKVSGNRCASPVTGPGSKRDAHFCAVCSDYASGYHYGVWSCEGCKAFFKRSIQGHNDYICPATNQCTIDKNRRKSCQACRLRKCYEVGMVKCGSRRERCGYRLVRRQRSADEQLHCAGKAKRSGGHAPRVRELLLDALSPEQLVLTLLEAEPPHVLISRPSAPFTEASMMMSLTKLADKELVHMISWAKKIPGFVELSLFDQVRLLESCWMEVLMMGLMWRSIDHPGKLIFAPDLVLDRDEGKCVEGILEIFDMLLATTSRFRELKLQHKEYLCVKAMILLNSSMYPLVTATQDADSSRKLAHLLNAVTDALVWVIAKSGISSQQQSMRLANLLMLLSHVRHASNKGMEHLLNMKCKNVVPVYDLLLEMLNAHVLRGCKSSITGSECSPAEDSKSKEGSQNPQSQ

N#C[C@H](O[C@@H]1O[C@H](CO[C@@H]2O[C@H](CO)[C@@H](O)[C@H](O)[C@H]2O)[C@@H](O)[C@H](O)[C@H]1O)c1ccccc1 [AMYGDALIN]
Not Active: IC50 [1] | IC50 [2] | IC50 [3] | Ki [3] | IC50 [4] | Ki [4] | IC50 [5] | Ki [5] | IC50 [6] | Ki [6] | IC50 [7] | IC50 [8] | IC50 [9] | IC50 [10] | IC50 [11] | Ki [11] | IC50 [12] | IC50 [13] | IC50 [14] | Ki [14]

C=C1[C@@H]2CCC3[C@@](CC[C@@H]4[C@H](C(=O)O)C[C@@H](O[C@@H]5O[C@H](CO)[C@@H](OS(=O)(=O)[O-])[C@H](OS(=O)(=O)[O-])[C@H]5OC(=O)CC(C)C)C[C@@]34C)(C2)[C@@H]1O.[K+].[K+] (stereo not given in full) [ATRACTYLOSIDE]
Not Active: IC50 [1] | IC50 [2] | IC50 [3] | Ki [3] | IC50 [4] | Ki [4] | IC50 [5] | Ki [5] | IC50 [6] | Ki [6] | IC50 [7] | IC50 [8] | IC50 [9] | IC50 [10] | IC50 [11] | Ki [11] | IC50 [12] | IC50 [13] | IC50 [14] | Ki [14]

Cn1cnc([N+](=O)[O-])c1Sc1ncnc2nc[nH]c12 [AZATHIOPRINE]
Not Active: IC50 [1] | IC50 [2] | IC50 [3] | Ki [3] | IC50 [4] | Ki [4] | IC50 [5] | Ki [5] | IC50 [6] | Ki [6] | IC50 [7] | IC50 [8] | IC50 [9] | IC50 [10] | IC50 [11] | Ki [11] | IC50 [12] | IC50 [13] | IC50 [14] | Ki [14]

CC1(C)S[C@@H]2[C@H](NC(=O)[C@H](NC(=O)N3CCNC3=O)c3ccccc3)C(=O)N2[C@H]1C(=O)O [AZLOCILLIN]
Not Active: IC50 [1] | IC50 [2] | IC50 [3] | Ki [3] | IC50 [4] | Ki [4] | IC50 [5] | Ki [5] | IC50 [6] | Ki [6] | IC50 [7] | IC50 [8] | IC50 [9] | IC50 [10] | IC50 [11] | Ki [11] | IC50 [12] | IC50 [13] | IC50 [14] | Ki [14]

CC[C@H](C)[C@H](N)C1=N[C@H](C(=O)N[C@@H](CC(C)C)C(=O)N[C@H](CCC(=O)O)C(=O)N[C@H](C(=O)N[C@H]2CCCCNC(=O)[C@H](CC(N)=O)NC(=O)[C@@H](CC(=O)O)NC(=O)[C@H](Cc3cnc[nH]3)NC(=O)[C@@H](Cc3ccccc3)NC(=O)[C@H]([C@@H](C)CC)NC(=O)[C@@H](CCCN)NC2=O)[C@@H](C)CC)CS1 [BACITRACIN] ({Ileψ(thiazoline)Cys}-L[dE]IK[dOrn]I[dF]H[dD]N; lactam 4-C)
Not Active: IC50 [1] | IC50 [2] | IC50 [3] | Ki [3] | IC50 [4] | Ki [4] | IC50 [5] | Ki [5] | IC50 [6] | Ki [6] | IC50 [7] | IC50 [8] | IC50 [9] | IC50 [10] | IC50 [11] | Ki [11] | IC50 [12] | IC50 [13] | IC50 [14] | Ki [14]

CCOC(=O)c1ccc(N)cc1 [BENZOCAINE]
Not Active: IC50 [1] | IC50 [2] | IC50 [3] | Ki [3] | IC50 [4] | Ki [4] | IC50 [5] | Ki [5] | IC50 [6] | Ki [6] | IC50 [7] | IC50 [8] | IC50 [9] | IC50 [10] | IC50 [11] | Ki [11] | IC50 [12] | IC50 [13] | IC50 [14] | Ki [14]

OCc1ccccc1 [BENZYL ALCOHOL]
Not Active: IC50 [1] | IC50 [2] | IC50 [3] | Ki [3] | IC50 [4] | Ki [4] | IC50 [5] | Ki [5] | IC50 [6] | Ki [6] | IC50 [7] | IC50 [8] | IC50 [9] | IC50 [10] | IC50 [11] | Ki [11] | IC50 [12] | IC50 [13] | IC50 [14] | Ki [14]
